Assay results published in PMC5218480 (PLoS ONE, 2017).

System: MV-4-11 cells
Experiment: Gene expression microarray analysis (Affymetrix PrimeView) and GSEA
Type: cell-based, human
Design: RFU PODN (11730768_x_at) / Fold change /veh PODN (11730768_x_at) / RFU LINC00158 (11744669_a_at) / Fold change /veh LINC00158 (11744669_a_at) / RFU DUSP10 (11751237_a_at) / Fold change /veh DUSP10 (11751237_a_at) / RFU ID3 (11757404_x_at) / Fold change /veh ID3 (11757404_x_at) / RFU PLEKHG5 (11737974_s_at) / Fold change /veh PLEKHG5 (11737974_s_at) / RFU LRRC4B (11730491_at) / Fold change /veh LRRC4B (11730491_at) / RFU GIMAP4 (11747438_a_at) / Fold change /veh GIMAP4 (11747438_a_at) / RFU KRT8 (11758183_x_at) / Fold change /veh KRT8 (11758183_x_at) / RFU CNN1 (11734310_a_at) / Fold change /veh CNN1 (11734310_a_at) / RFU VPS37D (11726825_at) / Fold change /veh VPS37D (11726825_at) / RFU C10orf10 (11716522_x_at) / Fold change /veh C10orf10 (11716522_x_at) / RFU KIR2DL2 /// KIR2DL4 /// KIR2DL5A /// KIR2DL5B /// KIR2DS1 /// KIR2DS2 /// KIR2DS3 /// KIR2DS4 /// KIR3DL3 /// KIR3DL3 /// KIR3DS1 (11738374_at) / Fold change /veh KIR2DL2 /// KIR2DL4 /// KIR2DL5A /// KIR2DL5B /// KIR2DS1 /// KIR2DS2 /// KIR2DS3 /// KIR2DS4 /// KIR3DL3 /// KIR3DL3 /// KIR3DS1 (11738374_at) / RFU C1QL1 (11718748_at) / Fold change /veh C1QL1 (11718748_at) / RFU TMPRSS4 (11747572_a_at) / Fold change /veh TMPRSS4 (11747572_a_at) / RFU HAMP (11756126_x_at) / Fold change /veh HAMP (11756126_x_at) / RFU RNFT2 (11725882_a_at) / Fold change /veh RNFT2 (11725882_a_at) / RFU NR4A2 (11747474_a_at) / Fold change /veh NR4A2 (11747474_a_at) / RFU ABCC12 (11746883_a_at) / Fold change /veh ABCC12 (11746883_a_at) / RFU TMEM136 (11760407_x_at) / Fold change /veh TMEM136 (11760407_x_at) / RFU CLDN22 /// WWC2 (11732394_at) / Fold change /veh CLDN22 /// WWC2 (11732394_at) / RFU HLA-DPB1 (11760878_x_at) / Fold change /veh HLA-DPB1 (11760878_x_at) / RFU SPINT1 (11716480_a_at) / Fold change /veh SPINT1 (11716480_a_at) / RFU GAP43 (11754022_s_at) / Fold change /veh GAP43 (11754022_s_at) / RFU A4GNT (11735810_at) / Fold change /veh A4GNT (11735810_at) / RFU PRB3 (11715151_x_at) / Fold change /veh PRB3 (11715151_x_at) / RFU TUBB4B (11761932_at) / Fold change /veh TUBB4B (11761932_at) / RFU CAPN14 (11732068_a_at) / Fold change /veh CAPN14 (11732068_a_at) / RFU TMCC2 (11721928_a_at) / Fold change /veh TMCC2 (11721928_a_at) / RFU IRGQ (11745062_a_at) / Fold change /veh IRGQ (11745062_a_at) / RFU FAM174B (11720279_a_at) / Fold change /veh FAM174B (11720279_a_at) / RFU TMPRSS4 (11748680_a_at) / Fold change /veh TMPRSS4 (11748680_a_at) / RFU FAM212B (11763350_a_at) / Fold change /veh FAM212B (11763350_a_at) / RFU PLEKHG5 (11743358_a_at) / Fold change /veh PLEKHG5 (11743358_a_at) / RFU ZSCAN30 (11745921_a_at) / Fold change /veh ZSCAN30 (11745921_a_at) / RFU CMKLR1 (11741424_a_at) / Fold change /veh CMKLR1 (11741424_a_at) / RFU LOC101060620 /// MAPK8IP1 (11723275_at) / Fold change /veh LOC101060620 /// MAPK8IP1 (11723275_at) / RFU SPTSSB (11747773_x_at) / Fold change /veh SPTSSB (11747773_x_at) / RFU PRSS12 (11739890_at) / Fold change /veh PRSS12 (11739890_at) / RFU BIN1 (11741810_x_at) / Fold change /veh BIN1 (11741810_x_at) / RFU WNT11 (11732464_a_at) / Fold change /veh WNT11 (11732464_a_at) / RFU C10orf10 (11716521_a_at) / Fold change /veh C10orf10 (11716521_a_at) / RFU C5orf56 (11738089_at) / Fold change /veh C5orf56 (11738089_at) / RFU CYB561 (11721691_x_at) / Fold change /veh CYB561 (11721691_x_at) / RFU ANKRD19P (11752326_a_at) / Fold change /veh ANKRD19P (11752326_a_at) / RFU OR2T12 /// OR2T33 /// OR2T8 (11738714_s_at) / Fold change /veh OR2T12 /// OR2T33 /// OR2T8 (11738714_s_at) / RFU VCAN (11748164_a_at) / Fold change /veh VCAN (11748164_a_at) / RFU JSRP1 (11732532_at) / Fold change /veh JSRP1 (11732532_at) / RFU KRTAP10-11 (11738290_x_at) / Fold change /veh KRTAP10-11 (11738290_x_at) / RFU MYO3A (11730013_a_at) / Fold change /veh MYO3A (11730013_a_at) / RFU EBF3 (11725865_a_at) / Fold change /veh EBF3 (11725865_a_at) / RFU CAMK2N1 (11719241_x_at) / Fold change /veh CAMK2N1 (11719241_x_at) / RFU C5orf56 (11738088_a_at) / Fold change /veh C5orf56 (11738088_a_at) / RFU OLFML3 (11715873_a_at) / Fold change /veh OLFML3 (11715873_a_at) / RFU LOC100653217 /// NTM (11731650_a_at) / Fold change /veh LOC100653217 /// NTM (11731650_a_at) / RFU MAPK11 (11762145_a_at) / Fold change /veh MAPK11 (11762145_a_at) / RFU FIZ1 (11724087_x_at) / Fold change /veh FIZ1 (11724087_x_at) / RFU OASL (11726364_x_at) / Fold change /veh OASL (11726364_x_at) / RFU SOX15 (11748057_x_at) / Fold change /veh SOX15 (11748057_x_at) / RFU CD79A (11719716_a_at) / Fold change /veh CD79A (11719716_a_at) / RFU HIST1H1D (11736915_at) / Fold change /veh HIST1H1D (11736915_at) / RFU CASKIN2 (11723855_a_at) / Fold change /veh CASKIN2 (11723855_a_at) / RFU LOC730098 (11760151_x_at) / Fold change /veh LOC730098 (11760151_x_at) / RFU OR4N2 (11742367_at) / Fold change /veh OR4N2 (11742367_at) / RFU PRRT2 (11749266_a_at) / Fold change /veh PRRT2 (11749266_a_at) / RFU SNX32 (11753110_a_at) / Fold change /veh SNX32 (11753110_a_at) / RFU CDHR5 (11726645_a_at) / Fold change /veh CDHR5 (11726645_a_at) / RFU RCAN1 (11760418_a_at) / Fold change /veh RCAN1 (11760418_a_at) / RFU FAM167A (11723789_a_at) / Fold change /veh FAM167A (11723789_a_at) / RFU FAM26E (11764081_at) / Fold change /veh FAM26E (11764081_at) / RFU ISYNA1 (11749810_s_at) / Fold change /veh ISYNA1 (11749810_s_at) / RFU ACY1 (11761880_at) / Fold change /veh ACY1 (11761880_at) / RFU 11764098_at / Fold change /veh 11764098_at / RFU SAMD14 (11745864_x_at) / Fold change /veh SAMD14 (11745864_x_at) / RFU NPB (11741838_a_at) / Fold change /veh NPB (11741838_a_at) / RFU TMPRSS6 (11731388_a_at) / Fold change /veh TMPRSS6 (11731388_a_at) / RFU KRTAP10-2 (11738614_at) / Fold change /veh KRTAP10-2 (11738614_at) / RFU ARHGAP8 /// PRR5-ARHGAP8 (11727945_x_at) / Fold change /veh ARHGAP8 /// PRR5-ARHGAP8 (11727945_x_at) / RFU KRTAP5-7 /// NADSYN1 (11734609_at) / Fold change /veh KRTAP5-7 /// NADSYN1 (11734609_at) / RFU RASL12 (11751679_a_at) / Fold change /veh RASL12 (11751679_a_at) / RFU CDKN2B (11736163_a_at) / Fold change /veh CDKN2B (11736163_a_at) / RFU PRF1 (11729649_at) / Fold change /veh PRF1 (11729649_at) / RFU, ZNF638 /// ZNF638-IT1 / Fold change vs veh, ZNF638 /// ZNF638-IT1 / RFU, PANK3 / Fold change vs veh, PANK3 / RFU, SH3YL1 / Fold change vs veh, SH3YL1 / RFU, ZEB2 / Fold change vs veh, ZEB2 / RFU, NRIP1 / Fold change vs veh, NRIP1 / RFU, PTTG1IP / Fold change vs veh, PTTG1IP / RFU, CAPN2 / Fold change vs veh, CAPN2 / RFU, MED14 / Fold change vs veh, MED14 / RFU, SNORA58 / Fold change vs veh, SNORA58 / RFU, C1orf63 / Fold change vs veh, C1orf63 / RFU, LRRFIP1 / Fold change vs veh, LRRFIP1 / RFU, NDUFAF7 / Fold change vs veh, NDUFAF7 / RFU, SLC12A2 / Fold change vs veh, SLC12A2 / RFU, IBTK / Fold change vs veh, IBTK / RFU, ESF1 / Fold change vs veh, ESF1 / Fold change vs veh, TMEM50B / RFU, TAOK1 / Fold change vs veh, TAOK1 / RFU, ACBD3 / Fold change vs veh, ACBD3 / RFU, TMA16 / Fold change vs veh, TMA16 / RFU, RWDD3 / Fold change vs veh, RWDD3 / RFU, BCAT1 / Fold change vs veh, BCAT1 / RFU, EDEM3 / Fold change vs veh, EDEM3 / RFU, TMEM33 / Fold change vs veh, TMEM33 / RFU, WDR75 / Fold change vs veh, WDR75 / RFU, AHCTF1 / Fold change vs veh, AHCTF1 / RFU, TFRC / Fold change vs veh, TFRC / RFU, ZDHHC17 / Fold change vs veh, ZDHHC17 / RFU, NOM1 / Fold change vs veh, NOM1 / RFU, ARL8B / Fold change vs veh, ARL8B / RFU, ZBTB11 / Fold change vs veh, ZBTB11 / RFU, TAMM41 / Fold change vs veh, TAMM41 / RFU, KIAA1704 /// LOC100996395 / Fold change vs veh, KIAA1704 /// LOC100996395 / RFU, ING1 / Fold change vs veh, ING1 / RFU, TRMT61B / Fold change vs veh, TRMT61B / RFU, FUBP3 / Fold change vs veh, FUBP3 / RFU, TP53 / Fold change vs veh, TP53 / RFU, TNKS2 / Fold change vs veh, TNKS2 / RFU, ZFP14 / Fold change vs veh, ZFP14 / RFU, ACTR2 / Fold change vs veh, ACTR2 / RFU, PPP3R1 / Fold change vs veh, PPP3R1 / RFU, PIK3R1 / Fold change vs veh, PIK3R1 / RFU, HNRNPA1 / Fold change vs veh, HNRNPA1 / RFU, RNF170 / Fold change vs veh, RNF170 / RFU, ZNF28 / Fold change vs veh, ZNF28 / RFU, RNGTT / Fold change vs veh, RNGTT / RFU, OGT / Fold change vs veh, OGT / RFU, BRD1 / Fold change vs veh, BRD1 / RFU, MARS / Fold change vs veh, MARS / RFU, ZNF655 / Fold change vs veh, ZNF655 / RFU, FAHD1 / Fold change vs veh, FAHD1 / RFU, BDP1 / Fold change vs veh, BDP1 / RFU, LRRCC1 / Fold change vs veh, LRRCC1 / RFU, ARID1A / Fold change vs veh, ARID1A / RFU, ZNF146 / Fold change vs veh, ZNF146 / RFU, ZNF330 / Fold change vs veh, ZNF330 / RFU, GPN3 / Fold change vs veh, GPN3 / RFU, C9orf123 / Fold change vs veh, C9orf123 / RFU, N4BP2L2 / Fold change vs veh, N4BP2L2 / RFU, ARFIP1 / Fold change vs veh, ARFIP1 / RFU, FAM179B / Fold change vs veh, FAM179B / RFU, BCL10 / Fold change vs veh, BCL10 / RFU, UHRF1BP1L / Fold change vs veh, UHRF1BP1L / RFU, BET1 / Fold change vs veh, BET1 / RFU, CNOT2 / Fold change vs veh, CNOT2 / RFU, ZNF268 / Fold change vs veh, ZNF268 / Fold change vs veh, ZNF507 / RFU, DGCR2 / Fold change vs veh, DGCR2 / RFU, WDSUB1 / Fold change vs veh, WDSUB1 / Fold change vs veh, HSP90B1 /// MIR3652 / RFU, ADSS / Fold change vs veh, ADSS / RFU, GK / Fold change vs veh, GK / RFU, ZNF148 / Fold change vs veh, ZNF148 / RFU, TAF9 / Fold change vs veh, TAF9 / RFU, SLC1A5 / Fold change vs veh, SLC1A5 / RFU, SLMO2 / Fold change vs veh, SLMO2 / RFU, ABCC4 / Fold change vs veh, ABCC4 / RFU, LOC101060439 /// RAP1B / Fold change vs veh, LOC101060439 /// RAP1B / RFU, RFX7 / Fold change vs veh, RFX7 / RFU, GTPBP10 / Fold change vs veh, GTPBP10 / RFU, CNEP1R1 / Fold change vs veh, CNEP1R1 / RFU, BIVM-ERCC5 /// ERCC5 / Fold change vs veh, BIVM-ERCC5 /// ERCC5 / RFU, ILF3 / Fold change vs veh, ILF3 / RFU 11762660_at / Fold change /veh 11762660_at / RFU VCAN (11757783_s_at) / Fold change /veh VCAN (11757783_s_at) / RFU DDX43 (11728927_at) / Fold change /veh DDX43 (11728927_at) / RFU KRT8 (11758188_x_at) / Fold change /veh KRT8 (11758188_x_at) / RFU NKD1 (11759106_at) / Fold change /veh NKD1 (11759106_at) / RFU SRD5A1 (11742802_a_at) / Fold change /veh SRD5A1 (11742802_a_at) / RFU TPSAB1 /// TPSB2 (11721975_s_at) / Fold change /veh TPSAB1 /// TPSB2 (11721975_s_at) / RFU GSTM3 (11746129_a_at) / Fold change /veh GSTM3 (11746129_a_at) / RFU IL23R (11737362_x_at) / Fold change /veh IL23R (11737362_x_at) / RFU TMEM51 (11727254_a_at) / Fold change /veh TMEM51 (11727254_a_at) / RFU PIWIL2 (11732686_x_at) / Fold change /veh PIWIL2 (11732686_x_at) / RFU ORM1 (11744905_x_at) / Fold change /veh ORM1 (11744905_x_at) / RFU CCDC152 (11743942_at) / Fold change /veh CCDC152 (11743942_at) / RFU ECM1 (11717891_a_at) / Fold change /veh ECM1 (11717891_a_at) / RFU IL23R (11748794_a_at) / Fold change /veh IL23R (11748794_a_at) / RFU TNFAIP8L3 (11732012_x_at) / Fold change /veh TNFAIP8L3 (11732012_x_at) / RFU MBOAT4 (11741988_at) / Fold change /veh MBOAT4 (11741988_at) / RFU 11764193_at / Fold change /veh 11764193_at / RFU TMEM53 (11763286_at) / Fold change /veh TMEM53 (11763286_at) / RFU MAGEB2 (11727129_at) / Fold change /veh MAGEB2 (11727129_at) / RFU TMEM200A (11744735_a_at) / Fold change /veh TMEM200A (11744735_a_at) / RFU CCDC152 (11751479_a_at) / Fold change /veh CCDC152 (11751479_a_at) / RFU FAM211A (11726209_a_at) / Fold change /veh FAM211A (11726209_a_at) / RFU RGS16 (11746705_a_at) / Fold change /veh RGS16 (11746705_a_at) / RFU VCAN (11755009_s_at) / Fold change /veh VCAN (11755009_s_at) / RFU RHOB (11743442_s_at) / Fold change /veh RHOB (11743442_s_at) / RFU RGS16 (11720943_a_at) / Fold change /veh RGS16 (11720943_a_at) / RFU RGS16 (11720944_at) / Fold change /veh RGS16 (11720944_at) / RFU, VPS4B / Fold change vs veh, VPS4B / RFU, CREB1 / Fold change vs veh, CREB1 / RFU, DNAJC13 / Fold change vs veh, DNAJC13 / RFU, GNAQ / Fold change vs veh, GNAQ / RFU, CDK5R1 / Fold change vs veh, CDK5R1 / RFU, ZRANB3 / Fold change vs veh, ZRANB3 / RFU, CUL4A / Fold change vs veh, CUL4A / RFU, CCNY / Fold change vs veh, CCNY / RFU, UFL1 / Fold change vs veh, UFL1 / RFU, COG3 / Fold change vs veh, COG3 / RFU, DIAPH2 / Fold change vs veh, DIAPH2 / RFU, SKA2 / Fold change vs veh, SKA2 / RFU, AFF3 / Fold change vs veh, AFF3 / RFU, LMF1 / Fold change vs veh, LMF1 / RFU, IPO11 / Fold change vs veh, IPO11 / RFU, DFFB / Fold change vs veh, DFFB / RFU, FOXP1 / Fold change vs veh, FOXP1 / RFU, CARD8 / Fold change vs veh, CARD8 / RFU, STRN3 / Fold change vs veh, STRN3 / RFU, ADK / Fold change vs veh, ADK / RFU, RASSF2 / Fold change vs veh, RASSF2 / RFU, WIPF1 / Fold change vs veh, WIPF1 / RFU, LARP1B / Fold change vs veh, LARP1B / RFU, RASA1 / Fold change vs veh, RASA1 / RFU, RB1 / Fold change vs veh, RB1 / RFU, PPFIA1 / Fold change vs veh, PPFIA1 / RFU, MAT2A / Fold change vs veh, MAT2A / RFU, CCT5 / Fold change vs veh, CCT5 / RFU, WDR92 / Fold change vs veh, WDR92 / RFU, CUX1 / Fold change vs veh, CUX1 / RFU, TTC7A / Fold change vs veh, TTC7A / RFU, TMEM135 / Fold change vs veh, TMEM135 / RFU, DEPTOR / Fold change vs veh, DEPTOR / RFU, CPM / Fold change vs veh, CPM / RFU, DNAJB6 / Fold change vs veh, DNAJB6 / RFU, CACNA2D3 / Fold change vs veh, CACNA2D3 / RFU, DTX4 / Fold change vs veh, DTX4 / RFU, TFCP2 / Fold change vs veh, TFCP2 / RFU, GMCL1 /// GMCL1P1 / Fold change vs veh, GMCL1 /// GMCL1P1 / RFU, AEBP2 / Fold change vs veh, AEBP2 / RFU, SNHG1 /// SNORD22 /// SNORD25 /// SNORD26 /// SNORD27 /// SNORD28 /// SNORD29 /// SNORD31 / Fold change vs veh, SNHG1 /// SNORD22 /// SNORD25 /// SNORD26 /// SNORD27 /// SNORD28 /// SNORD29 /// SNORD31 / Fold change (Aza/veh), C12orf56 (ProbeSet 11735607_a_at) / Fold change (ACY-1035/veh), C12orf56 (ProbeSet 11735607_a_at) / Fold change (Aza/veh), FGFR1OP (ProbeSet 11751329_s_at) / Fold change (ACY-1035/veh), FGFR1OP (ProbeSet 11751329_s_at) / Fold change (Aza/veh), VPS36 (ProbeSet 11739960_a_at) / Fold change (ACY-1035/veh), VPS36 (ProbeSet 11739960_a_at) / RFU SYPL1 (11715823_x_at) / Fold change /veh SYPL1 (11715823_x_at) / RFU IGFBP7 (11715501_s_at) / Fold change /veh IGFBP7 (11715501_s_at) / RFU REEP3 (11722064_at) / Fold change /veh REEP3 (11722064_at) / RFU IGLL1 (11728026_x_at) / Fold change /veh IGLL1 (11728026_x_at): dose or concentration left out as unconfirmed
Conditions: ProbeSet 11725902_s_at; LIST D

## Nc1ccc(-c2cccs2)cc1NC(=O)c1ccc2c(c1)cc(C1CC1)n2CCN1CCOCC1 [ACY-1035]
  RFU, TMEM135: 107.94 RFU
